What was measured:
[1] = Cytotoxicity against human HeLa cells assessed as reduction in cell viability after 3 days by ATPlite assay
[2] = Metabolic stability in human liver microsomes assessed as compound metabolized after 15 mins; assay type: ADME, Microsome; settings: read-out: Drug metabolism
in vitro = settings: human, HeLa cells
Description: Selectivity index, ratio of CC50 for human HeLa cells to EC50 GFP-fused RSV 224 fusion protein infected in human HeLa cells

[3] = Clearance in Sprague-Dawley rat at 2 mg/kg, iv administered as single dose; assay type: ADME, organism-based; settings: in vivo
[4] = Volume of distribution at steady state in Sprague-Dawley rat at 2 mg/kg, iv administered as single dose; assay type: ADME, organism-based; settings: in vivo, read-out: Vdss
[5] = Cmax in Sprague-Dawley rat at 10 mg/kg, po administered as single dose; assay type: ADME, organism-based; design: dose 10 mg/kg, route oral; settings: in vivo
[6] = AUC in Sprague-Dawley rat at 10 mg/kg, po administered as single dose; assay type: ADME, organism-based; settings: in vivo
[7] = Absolute oral bioavailability in Sprague-Dawley rat at 10 mg/kg administered as single dose; assay type: ADME, organism-based; settings: in vivo
[8] = Ratio of AUC (0 to last) in lung to plasma of Sprague-Dawley rat at 10 mg/kg, po administered as single dose; assay type: ADME, organism-based; settings: lung and plasma, read-out: Ratio AUC
[9] = Metabolic stability in rat liver microsomes assessed as compound metabolized after 15 mins; assay type: ADME, Microsome; settings: read-out: Drug metabolism
[10] = Protein binding in human plasma assessed as unbound fraction; assay type: ADME, cell-free
Cytochrome P450 3A4 = Cytochrome P450 3A4 (Homo sapiens, UniProt P08684); test: Time-dependent inhibition of CYP3A4 in human liver microsomes using testosterone as substrate; assay type: ADME
Sequence of Cytochrome P450 3A4 (P08684 whole entry): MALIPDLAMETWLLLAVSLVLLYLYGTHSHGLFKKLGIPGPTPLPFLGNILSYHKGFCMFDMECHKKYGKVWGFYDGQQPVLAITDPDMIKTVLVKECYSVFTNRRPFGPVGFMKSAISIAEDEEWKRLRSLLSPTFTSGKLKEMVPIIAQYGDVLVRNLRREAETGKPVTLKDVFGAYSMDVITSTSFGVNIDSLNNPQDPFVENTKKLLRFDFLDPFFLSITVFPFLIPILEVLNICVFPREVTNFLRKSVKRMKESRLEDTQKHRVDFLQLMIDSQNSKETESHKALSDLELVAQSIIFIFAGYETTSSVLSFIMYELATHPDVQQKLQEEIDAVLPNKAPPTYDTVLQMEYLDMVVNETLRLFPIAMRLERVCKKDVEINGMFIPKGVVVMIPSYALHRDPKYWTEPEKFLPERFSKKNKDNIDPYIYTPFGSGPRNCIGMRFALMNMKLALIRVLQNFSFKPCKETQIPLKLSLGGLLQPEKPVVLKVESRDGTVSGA

Compound	metabolised at 0.25 h [2] [%]	CC50 at 72 h [1] [µM]	other results
COc1ccc2c(c1)cc(Cn1c(=O)n(C3CC3)c3ccncc31)n2CCCCO		> 50	
CC(C)CCn1c(Cn2c(=O)n(C3CC3)c3ccncc32)nc2cccnc21		> 100	selectivity ratio (in vitro): > 80
NC(=O)CCCn1c(Cn2c(=O)n(C3CC3)c3ccncc32)cc2cc(Cl)ccc21		> 50	
O=c1n(Cc2nc3ncccc3n2CCCCO)c2cnccc2n1C1CC1		> 100	selectivity ratio (in vitro): > 10000
O=c1n(Cc2cc3ncccc3n2CCCCO)c2cnccc2n1C1CC1		> 100	selectivity ratio (in vitro): > 613
CS(=O)(=O)CCCn1c(Cn2c(=O)n(C3CC3)c3ccncc32)cc2cc(C(F)(F)F)ccc21		> 50	
CC(C)CCn1c(Cn2c(=O)n(C3CC3)c3ccncc32)nc2ncccc21		> 100	selectivity ratio (in vitro): > 12000
CC(C)CCn1c(Cn2c(=O)n(C3CC3)c3ccncc32)cc2ccccc21		> 100	fraction unbound [10]: 0.006; selectivity ratio (in vitro): 181
O=c1n(Cc2nc3cnccc3n2CCCCO)c2cnccc2n1C1CC1		> 100	selectivity ratio (in vitro): > 18000
CC(C)(C)n1c(=O)n(Cc2cc3cc(Cl)ccc3n2CCCS(C)(=O)=O)c2cnccc21	28	> 50	
CS(=O)(=O)CCCn1c(Cn2c(=O)n(C3CC3)c3ccncc32)cc2cc(F)ccc21		> 50	
COc1ccc(-n2c(=O)n(Cc3cc4cc(Cl)ccc4n3CCCC#N)c3cnccc32)c(C)c1	36	> 50	
CC(C)CCn1c(Cn2c(=O)n(C3CC3)c3ccncc32)cc2cccnc21		> 100	
CC(n1c(=O)n(Cc2cc3cc(Cl)ccc3n2CCCS(C)(=O)=O)c2cnccc21)C(F)(F)F (stereo not drawn)	2	> 50	
O=c1n(Cc2cc3ccncc3n2CCCCO)c2cnccc2n1C1CC1		> 100	selectivity ratio (in vitro): > 76
COc1ccc(-n2c(=O)n(Cc3cc4cc(Cl)ccc4n3CCCC#N)c3cnccc32)c(F)c1	17	> 50	
CS(=O)(=O)CCCn1c(Cn2c(=O)[nH]c3ccncc32)cc2cc(Cl)ccc21	9	> 50	TDI (Cytochrome P450 3A4): Not Active
O=c1n(Cc2cc3cnccc3n2CCCCO)c2cnccc2n1C1CC1		> 100	selectivity ratio (in vitro): > 57000
CS(=O)(=O)CCCn1c(Cn2c(=O)n(C3CC3)c3ccncc32)cc2cc(Br)ccc21		> 50	
CC(C)CCn1c(Cn2c(=O)n(C3CC3)c3ccncc32)nc2ccncc21		> 100	selectivity ratio (in vitro): > 987
CC(C)CCn1c(Cn2c(=O)n(C3CC3)c3ccncc32)nc2cnccc21		> 100	selectivity ratio (in vitro): > 3000
N#CCCCn1c(Cn2c(=O)n(-c3ccc(OC(F)(F)F)cc3)c3ccncc32)cc2cc(Cl)ccc21	0	> 50	
O=c1n(Cc2cc3ccc(Cl)cc3n2CCCCO)c2cnccc2n1C1CC1		> 50	
COc1ccc(-n2c(=O)n(Cc3cc4cc(Cl)ccc4n3CCCC#N)c3cnccc32)cc1C	33	> 50	
O=c1n(Cc2cc3cc(Br)ccc3n2CCCCO)c2cnccc2n1C1CC1		> 50	
CS(=O)(=O)CCCn1c(Cn2c(=O)n(C3CC3)c3ccncc32)cc2ccccc21		> 100	selectivity ratio (in vitro): > 10000
N#CCCCn1c(Cn2c(=O)n(-c3ccncc3F)c3ccncc32)cc2cc(Cl)ccc21	27	> 50	
O=c1n(Cc2cc3cc(F)ccc3n2CCCCO)c2cnccc2n1C1CC1		> 50	
Cc1ccc(-n2c(=O)n(Cc3cc4cc(Cl)ccc4n3CCCC#N)c3cnccc32)cc1	36	> 50	
O=C(O)CCCn1c(Cn2c(=O)n(C3CC3)c3ccncc32)cc2cc(Cl)ccc21		> 50	

Continued, in another order:

metabolised at 0.25 h [2] [%]	Compound	CC50 at 72 h [1] [µM]	other results
14	CS(=O)(=O)CCCn1c(Cn2c(=O)n(C3CNC3)c3ccncc32)cc2cc(Cl)ccc21	> 50	
45	N#CCCCn1c(Cn2c(=O)n(-c3ncco3)c3ccncc32)cc2cc(Cl)ccc21	> 50	
49	Cn1ccc(-n2c(=O)n(Cc3cc4cc(Cl)ccc4n3CCCC#N)c3cnccc32)n1	> 50	
17	N#CCCCn1c(Cn2c(=O)n(C3CC3)c3ccncc32)cc2cc(Cl)ccc21	> 50	clearance [3]: 36.7 mL/min/kg; Vd [4]: 1.5 L/kg; Cmax [5]: 1230 ng/mL; AUC [6]: 3300 ng·h/mL; bioavailability [7]: 73%; Kp [8]: 1.6; metabolised at 0.25 h [9]: 80%; fraction unbound [10]: 0.036
15	CS(=O)(=O)CCCn1c(Cn2c(=O)n(C3CN(S(C)(=O)=O)C3)c3ccncc32)cc2cc(Cl)ccc21	> 50	
24	N#CCCCn1c(Cn2c(=O)n(-c3ccc(C(=O)NC4CC4)cc3)c3ccncc32)cc2cc(Cl)ccc21	> 50	
60	N#CCCCn1c(Cn2c(=O)n(-c3ccncn3)c3ccncc32)cc2cc(Cl)ccc21	> 50	
56	CC(C)(O)CCCn1c(Cn2c(=O)n(C3CC3)c3ccncc32)cc2cc(Cl)ccc21	> 50	
7	CC(C)CCn1c(Cn2c(=O)n(C3CC3)c3ccncc32)nc2nc(Cl)ccc21	> 50	
15	O=c1n(Cc2cc3cnccc3n2CCCCF)c2cnccc2n1C1CC1	> 50	
23	N#CCCCn1c(Cn2c(=O)n(-c3ccncc3)c3ccncc32)cc2cc(Cl)ccc21	> 50	
52	CS(=O)(=O)CCCn1c(Cn2c(=O)n(C3COC3)c3ccncc32)cc2cc(Cl)ccc21	> 50	
32	CS(=O)(=O)CCCn1c(Cn2c(=O)n(C3CC3)c3ccncc32)cc2cnccc21	> 50	
66	CS(=O)(=O)CCCn1c(Cn2c(=O)n(CC#N)c3ccncc32)cc2cc(Cl)ccc21	> 50	
37	O=c1n(Cc2cc3cc(Cl)ccc3n2CCCCF)c2cnccc2n1C1CC1	> 50	
98	CS(=O)(=O)CCCn1c(Cn2c(=O)n(CC3CC3)c3ccncc32)cc2cc(Cl)ccc21	> 50	TDI (Cytochrome P450 3A4): Not Active

metabolised at 0.25 h [2] [%]	Compound	CC50 at 72 h [1] [µM]	other results
0	CS(=O)(=O)CCCn1c(Cn2c(=O)n(C3CC3)c3ccncc32)nc2nc(Cl)ccc21	> 50	
41	CC(C)(O)CCCn1c(Cn2c(=O)n(C3CC3)c3ccncc32)nc2nc(Cl)ccc21	> 50	
49	O=c1n(Cc2cc3cc(Cl)ccc3n2CCCCO)c2cnccc2n1C1CC1	> 50	
34	N#CCCCn1c(Cn2c(=O)n(-c3ncccn3)c3ccncc32)cc2cc(Cl)ccc21	> 50	
23	O=c1n(Cc2cc3cc(Cl)ccc3n2CCCC(F)(F)F)c2cnccc2n1C1CC1	> 50	
0	O=c1n(Cc2nc3nc(Cl)ccc3n2CCCCF)c2cnccc2n1C1CC1	> 50	
0	O=c1n(Cc2nc3nc(Cl)ccc3n2CCCCO)c2cnccc2n1C1CC1	> 50	
0	N#CCCCn1c(Cn2c(=O)n(C3CC3)c3ccncc32)nc2nc(Cl)ccc21	> 50	
0	O=c1n(Cc2nc3nc(Cl)ccc3n2CCCC(F)(F)F)c2cnccc2n1C1CC1	> 50	clearance [3]: 23.3 mL/min/kg; Vd [4]: 0.82 L/kg; Cmax [5]: 1690 ng/mL; AUC [6]: 3370 ng·h/mL; bioavailability [7]: 46%; Kp [8]: 0.4; metabolised at 0.25 h [9]: 80%; fraction unbound [10]: 0.3
37	N=C(CCCn1c(Cn2c(=O)n(C3CC3)c3ccncc32)cc2cc(Cl)ccc21)NO	> 50	
29	CC1(n2c(=O)n(Cc3cc4cc(Cl)ccc4n3CCCS(C)(=O)=O)c3cnccc32)CC1	> 50	TDI (Cytochrome P450 3A4): Not Active
97	CC(C)n1c(=O)n(Cc2cc3cc(Cl)ccc3n2CCCS(C)(=O)=O)c2cnccc21	> 50	TDI (Cytochrome P450 3A4): Not Active
44	CC(C)CCn1c(Cn2c(=O)n(C3CC3)c3ccncc32)cc2cnccc21	> 50	
9	N#CCCCn1c(Cn2c(=O)n(-c3ccc(C(=O)O)cc3)c3ccncc32)cc2cc(Cl)ccc21	> 50	
99	O=c1n(Cc2cc3cc(Cl)ccc3n2CCCN2CCOCC2)c2cnccc2n1C1CC1	> 50	

— ChEMBL document CHEMBL4619758, “Discovery of 3-({5-Chloro-1-[3-(methylsulfonyl)propyl]-1H-indol-2-yl}methyl)-1-(2,2,2-trifluoroethyl)-1,3-dihydro-2H-imidazo[4,5-c]pyridin-2-one (JNJ-53718678), a Potent and Orally Bioavailable Fusion Inhibitor of Respiratory Syncytial Virus” (J Med Chem, 2020)
